Legend:
physchem [1] = conditions: buffer, pH 6.5
physchem [2] = conditions: buffer
[3] = Han Wistar, rat, pH 6.8
in vitro [4] = conditions: male, Wistar Han, rat, tissue homogenate, pH 6.8
in vitro [5] = conditions: rat, pH 7.2, rat blood T1/2 (h) pH 7.2
[6] = rat, in vivo
[7] = pH 6.5

SMILES | half-life (physchem [1]) | half-life (physchem [2]; pH 6.5) | half-life (physchem [2]; pH 7.4) | half-life (in vitro [4]) | other results
CC(OC(=O)CCCCN)OC(=O)N1CCC(OC(=O)C(O)(c2ccccc2)c2ccccc2)CC1.Cl (stereo not drawn) [Compound 6, 1-((5-Aminopentanoyl)oxy)ethyl-4-(2-hydroxy-2,2-diphenylacetoxy)piperidine-1-carboxylate Hydrochloride] | < 0.01 h | – | – | – | –
CC(OC(=O)[C@@H]1CCCN1)OC(=O)N1CCC(OC(=O)C(O)(c2ccccc2)c2ccccc2)CC1.Cl (stereo partly drawn) [Compound 9, 1-((L-Prolyl)oxy)ethyl-4-(2-hydroxy-2,2-diphenylacetoxy)piperidine-1-carboxylate Hydrochloride] | 0.14 h | – | – | – | –
CC(C)C[C@H](N)C(=O)OC(C)OC(=O)N1CCC(OC(=O)C(O)(c2ccccc2)c2ccccc2)CC1.Cl (stereo partly drawn) [Compound 13, 1-((L-Leucyl)oxy)ethyl-4-(2-hydroxy-2,2-diphenylacetoxy)piperidine-1-carboxylate Hydrochloride] | 5.09 h | – | – | – | –
CC(OC(=O)[C@@H](N)C(C)C)OC(=O)N1CCC(OC(=O)C(O)(c2ccccc2)c2ccccc2)CC1.Cl (stereo partly drawn) [Compound 14, 1-((L-Valyl)oxy)ethyl-4-(2-hydroxy-2,2-diphenylacetoxy)piperidine-1-carboxylate Hydrochloride] | 15.8 h | – | – | – | –
CC(OC(=O)[C@@H](N)C(C)(C)C)OC(=O)N1CCC(OC(=O)C(O)(c2ccccc2)c2ccccc2)CC1.Cl (stereo partly drawn) [Compound 15, 1-(((S)-2-Amino-3,3-dimethylbutanoyl)oxy)ethyl-4-(2-hydroxy-2,2-diphenylacetoxy)piperidine-1-carboxylate Hydrochloride] | 12.2 h | – | – | – | –
CC[C@H](C)[C@H](N)C(=O)OC(C)OC(=O)N1CCC(OC(=O)C(O)(c2ccccc2)c2ccccc2)CC1.Cl (stereo partly drawn) [Compound 16, 1-((L-Isoleucyl)oxy)ethyl-4-(2-hydroxy-2,2-diphenylacetoxy)piperidine-1-carboxylate Hydrochloride] | 13.9 h | – | – | – | –
CC(OC(=O)[C@@H](N)CCCCN)OC(=O)N1CCC(OC(=O)C(O)(c2ccccc2)c2ccccc2)CC1.Cl.Cl (stereo partly drawn) [Compound 17, 1-((L-Lysyl)oxy)ethyl-4-(2-hydroxy-2,2-diphenylacetoxy)piperidine-1-carboxylate Dihydrochloride] | – | 3.9 ± 0.05 h | 1.1 ± 0.02 h | – | –
CC(OC(=O)[C@@H](NC(=O)[C@@H](N)CCCCN)C(C)(C)C)OC(=O)N1CCC(OC(=O)C(O)(c2ccccc2)c2ccccc2)CC1.Cl.Cl (stereo partly drawn) [Compound 22, 1-(((S)-2-((S)-2,6-Diaminohexanamido)-3,3-dimethylbutanoyl)oxy)ethyl-4-(2-hydroxy-2,2-diphenylacetoxy)piperidine-1-carboxylate Dihydrochloride] | – | 186 ± 0.79 h | 67 ± 0.23 h | 2.5 ± 0.07 h | rat blood T1/2 (h) pH 7.2: 0.1 ± 0.01 h; formation of monobasic intermediate (peptide amide bond hydrolysis) [3]: clearly showing the intermediate 15; half-life (in vitro [5]): 0.2 h
CC(OC(=O)[C@H](NC(=O)[C@@H](N)CCCCN)C(C)(C)C)OC(=O)N1CCC(OC(=O)C(O)(c2ccccc2)c2ccccc2)CC1.Cl.Cl (stereo partly drawn) [Compound 23, 1-(((R)-2-((S)-2,6-Diaminohexanamido)-3,3-dimethylbutanoyl)oxy)ethyl-4-(2-hydroxy-2,2-diphenylacetoxy)piperidine-1-carboxylate Dihydrochloride] | – | 58.6 ± 4.91 h | 36.6 ± 1.7 h | 25.4 ± 1.94 h | 23 in lung as % of the total dose delivered (calculated mass balance) ([6]; male, Sprague Dawley): 54%; ratio of 23 to 1 in lung ([6]; male, Sprague Dawley): ~27:1; total lung concentration of 23 ([6]; male, Sprague Dawley, 0.2 mg/kg): 31.2 µM; plasma concentration of 23 in words ([6]; 0.2 mg/kg): only a very low concentration; formation of monobasic intermediate (peptide amide bond hydrolysis) [3]: no evidence of intermediate 18; appearance in dosing formulation [7]: clear solution; half-life (in vitro [5]): 7 ± 0.82 h
CC(OC(=O)[C@@H](NC(=O)[C@@H](N)CCCCN)C(C)C)OC(=O)N1CCC(OC(=O)C(O)(c2ccccc2)c2ccccc2)CC1.Cl.Cl (stereo partly drawn) [Compound 25, 1-((L-Lysyl-L-valyl)oxy)ethyl-4-(2-hydroxy-2,2-diphenylacetoxy)piperidine-1-carboxylate Dihydrochloride] | – | 14.4 ± 1.68 h | 4.4 ± 0.39 h | 0.6 ± 0.09 h | –
CC(OC(=O)[C@H](NC(=O)[C@@H](N)CCCCN)C(C)C)OC(=O)N1CCC(OC(=O)C(O)(c2ccccc2)c2ccccc2)CC1.Cl.Cl (stereo partly drawn) [Compound 26, 1-((L-Lysyl-D-valyl)oxy)ethyl-4-(2-hydroxy-2,2-diphenylacetoxy)piperidine-1-carboxylate Dihydrochloride] | – | 8.7 ± 1.06 h | 1.8 ± 0.2 h | 3.4 ± 0.08 h | half-life (in vitro [5]): 0.6 ± 0.07 h
CC[C@H](C)[C@H](N)C(=O)N[C@@H](CCCCN)C(=O)OC(C)OC(=O)N1CCC(OC(=O)C(O)(c2ccccc2)c2ccccc2)CC1.Cl.Cl (stereo partly drawn) [Compound 27, 1-((L-Isoleucyl-L-lysyl)oxy)ethyl-4-(2-hydroxy-2,2-diphenylacetoxy)piperidine-1-carboxylate Dihydrochloride] | – | 4.9 ± 0.06 h | 0.9 ± 0.04 h | – | –
CC(OC(=O)[C@H](CCCCN)NC(=O)CCN)OC(=O)N1CCC(OC(=O)C(O)(c2ccccc2)c2ccccc2)CC1.Cl.Cl (stereo partly drawn) [Compound 28, 1-(((3-Aminopropanoyl)-L-lysyl)oxy)ethyl-4-(2-hydroxy-2,2-diphenylacetoxy)piperidine-1-carboxylate Dihydrochloride] | – | 102 ± 3.86 h | 11.5 ± 0.73 h | 0.7 ± 0.21 h | –

Source: publication PMC9340777 (Journal of Medicinal Chemistry, 2022)
